Experimental findings from patent publication US9512152B2, “Phospholipid compound containing unsaturated fatty acid derivative having cyclopropane ring” (NISHIZAKI BIOINFORMATION RESEARCH INSTITUTE, priority 2013, dated 2016) are described below.

Test [1] relates to Akt in 3T3L1-GLUT4myc adipocytes. As to the kind of experiment: Akt activation, Western blotting of phospho-Akt (Thr308, Ser473). Format: cell-based. Particulars: diDCP-LA-PE 1 μM, FIG. 4. The protocol: 3T3L1-GLUT4myc fibroblast strain expressing GLUT4myc was used. The cells are constructed by inserting human c-MYC epitope (14 amino acids) into the first ectodomain. The cells were cultured in Dulbecco's Modified Eagles Medium (DMEM) added with 10% (v/v) bovine serum, penicillin (final concentration, 100 U/ml) and streptomycin (final concentration, 0.1 mg/ml) in a humid environment under 5% CO2 and 95% air at 37° C. When the cells reached confluence (day 0), the medium was exchanged with DMEM added with 10% (v/v) fetal bovine serum (FBS), 1 μM dexamethasone, 0.5 mM 3-isobutyl-methyl-xanthine and 0.1 mg/ml insulin to allow for differentiation from fibroblast into adipocyte. The medium was exchanged with DMEM added with 10% (v/v) FBS on day 3, day 7 and day 11. On day 14, the cells were used for the experiment. […]
For Western blotting, the protein was separated by SDS-polyacrylamide gel electrophoresis (SDS-PAGE), and transferred onto polyvinylidene difluoride membranes. […] The immunoreactivity was detected using ECL kit (GE Healthcare, Piscataway, N.J., USA), and visualized using a chemical luminescence detection system (chemiluminescence detection system; GE Healthcare). The protein concentration of each sample was measured using BCA protein assay kit (Thermo Fisher Scientific, Waltham, Mass., USA).
(Immunoblotting shows a protein as a band on a membrane.)

In test [2] the test system is 3T3L1-GLUT4myc adipocytes. As to the kind of experiment: Analysis of GLUT4 trafficking (cellular membrane transport of GLUT4). In kind it is cell-based. To be noted: 20 min. How it is done:
3T3L1-GLUT4myc fibroblast strain expressing GLUT4myc was used. The cells are constructed by inserting human c-MYC epitope (14 amino acids) into the first ectodomain. The cells were cultured in Dulbecco's Modified Eagles Medium (DMEM) added with 10% (v/v) bovine serum, penicillin (final concentration, 100 U/ml) and streptomycin (final concentration, 0.1 mg/ml) in a humid environment under 5% CO2 and 95% air at 37° C. When the cells reached confluence (day 0), the medium was exchanged with DMEM added with 10% (v/v) fetal bovine serum (FBS), 1 μM dexamethasone, 0.5 mM 3-isobutyl-methyl-xanthine and 0.1 mg/ml insulin to allow for differentiation from fibroblast into adipocyte. The medium was exchanged with DMEM added with 10% (v/v) FBS on day 3, day 7 and day 11. On day 14, the cells were used for the experiment.
3T3L1-GLUT4myc adipocytes were incubated in Krebs-Ringer-HEPES buffer [136 mM NaCl, 4.7 mM KCl, 1.25 mM CaCl2, 1.25 mM MgSO4 and 20 mM HEPES, pH 7.5] containing 0.2% (w/v) bovine serum albumin and added with 10 mM glucose at 37° C. for 1 hr. The cells were incubated in the presence or absence of insulin, phospholipid or a derivative thereof for 20 min. Then, the cells were homogenized by sonication in an ice-cooled mitochondria buffer containing 1% (v/v) protease inhibitor cocktail [210 mM mannitol, 70 mM sucrose, and 1 mM ethylenediaminetetraacetic acid (EDTA), 10 mM HEPES, pH 7.5]. Sequentially, the homogenate was centrifuged at 4° C. for 5 min at 3,000 rpm. The supernatant was further centrifuged at 4° C. for 15 min at 11,000 rpm. […] The protein concentration of each fraction was measured using BCA protein assay kit (Thermo Fisher Scientific, Waltham, Mass., USA). […] The immunoreactivity was detected using ECL kit (Invitrogen), and visualized using a chemical luminescence detection system (chemiluminescence detection system; GE Healthcare, Piscataway, N.J., USA). The signal density was measured using an image analysis software (Image Gauge software; GE Healthcare).

Test [3] concerns STZ-treated C57BL/6J mouse. The test can be described thus: Oral glucose tolerance test in streptozotocin-treated type 1 diabetes model mouse. Format: in vivo. To be noted: oral 1 mg/kg, 4 consecutive days before OGTT and 30 min before glucose, FIG. 11. How it is done:
C57BL/6J mouse (male, 8-week-old) (Japan SLC Inc.; Shizuoka, Japan) was used. Streptozotocin (STZ; 250 mg/kg) or saline as a control was injected intraperitoneally. After 4 days from the injection, an oral glucose tolerance test (OGTT) was performed.

Turning to `CCCCCC1CC1CC1CC1CCCCCCCC(=O)OC[C@H](COP(=O)(O)OCCN)OC(=O)CCCCCCCC1CC1CC1CC1CCCCC` (stereo partly shown) [diDCP-LA-PE, 1,2-o-bis-[8-{2-(2-pentyl-cyclopropylmethyl)-cyclopropyl}-octanoyl]-sn-glycero-3-phosphatidylethanolamine], the “Akt activation (phosphorylation of Thr308 and Ser473 relative to total Akt)” value in test [1] is on record as “has an action to activate Akt”. The “Promotion of cellular membrane transport of GLUT4” value in test [2] (1 μM, FIG. 7) is reported as “an action to promote cellular membrane transport of GLUT4”. Moreover, in test [2] (given concentrations, FIG. 8), the “Concentration dependence of cellular membrane transport of GLUT4” value is listed as “promotes cellular membrane transport of GLUT4 in a concentration-dependent manner”. Moreover, the “Suppression of increase in blood glucose” value in test [3] was “significantly suppresses an increase in the blood glucose”.
